In patent publication US20110092505A1, “ORGANIC COMPOUNDS” (priority 2008, published 2011):

Experiments:
protein kinase D3 (PKD3) = biological target: T1, protein kinase D3 (PKD3) (Homo sapiens, UniProt O94806); experiment: PKD3 TR-FRET (LANCE) kinase assay; type: biochemical; conditions: full length wild-type enzyme, 20 μM ATP, syntide-2 substrate; read-out: Inhibitory Activity PKD3
T1 construct: This assay is performed with full length wild-type enzyme that is purchased from Invitrogen; purchased Invitrogen
T1 sequence (O94806 1-890): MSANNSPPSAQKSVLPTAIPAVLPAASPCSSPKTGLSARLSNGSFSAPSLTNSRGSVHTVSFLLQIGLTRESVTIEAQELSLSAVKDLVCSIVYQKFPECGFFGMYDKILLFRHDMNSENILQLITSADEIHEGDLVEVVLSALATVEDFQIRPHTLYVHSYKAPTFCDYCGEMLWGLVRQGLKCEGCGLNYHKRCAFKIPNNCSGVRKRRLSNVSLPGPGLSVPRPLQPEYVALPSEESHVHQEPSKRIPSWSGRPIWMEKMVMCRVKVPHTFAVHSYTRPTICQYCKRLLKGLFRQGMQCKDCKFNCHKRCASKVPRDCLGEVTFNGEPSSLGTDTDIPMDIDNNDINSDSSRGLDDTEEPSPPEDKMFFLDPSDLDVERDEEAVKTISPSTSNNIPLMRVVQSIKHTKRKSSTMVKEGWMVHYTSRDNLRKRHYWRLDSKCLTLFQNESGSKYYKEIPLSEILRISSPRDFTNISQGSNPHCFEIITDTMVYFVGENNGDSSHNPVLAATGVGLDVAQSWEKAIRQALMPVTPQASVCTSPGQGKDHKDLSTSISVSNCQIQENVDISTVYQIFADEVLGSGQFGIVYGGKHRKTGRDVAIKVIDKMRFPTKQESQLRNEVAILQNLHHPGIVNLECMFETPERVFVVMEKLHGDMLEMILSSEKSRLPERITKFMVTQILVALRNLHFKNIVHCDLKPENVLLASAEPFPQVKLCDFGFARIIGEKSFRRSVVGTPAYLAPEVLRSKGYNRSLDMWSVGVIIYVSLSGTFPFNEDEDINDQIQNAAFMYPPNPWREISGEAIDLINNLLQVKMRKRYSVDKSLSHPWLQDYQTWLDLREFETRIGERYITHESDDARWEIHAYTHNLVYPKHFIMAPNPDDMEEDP
Excerpt: (§1) The assay to measure protein kinase D3 (PKD3) activity is a time-resolved fluorescence resonance transfer (TR-FRET) assay using PerkinElmer's LANCE™ technology. In this case, a biotinylated syntide-2 peptide is used as the substrate in this reaction. Phosphorylation of the syntide-2 substrate is detected by a specific antibody that recognizes the phosphorylated peptide. A second fluorophore, APC, is conjugated to streptavidin that binds the biotinylated syntide-2 peptide. […] Therefore, when the europium labeled secondary antibody binds on the phosphorylated peptide, it is brought into close contact with the APC and excites this fluorophore.
(§2) This assay is performed with full length wild-type enzyme that is purchased from Invitrogen. The reaction buffer consists of 35 mM Tris-HCl pH7.5, 5 mM MgCl2, 0.02% Tween-20, 20 μM ATP, 1 mM DTT and 0.2 μg/mL PKD3 enzyme. The enzyme reaction is initiated by the addition of 2 μM syntide-2 peptide substrate and the reaction carried out for 50 minutes at room temperature. The reaction is stopped by a stop/detection buffer consisting of 50 mM EDTA, 0.18 mg/mL rabbit polyclonal anti-phospho Syntide-2 antibody, 0.5 nM europium labeled anti-rabbit IgG and 10 nM streptavidin conjugated APC. After a one hour incubation with the stop/detection buffer, the reaction is read on an Envision 2100 Reader using a LANCE™ Eu/APC dual protocol. […] IC50 values are calculated using an Activity Base (IDBS) software program.

protein kinase D2 (PKD2) = biological target: T2, protein kinase D2 (PKD2) (Homo sapiens, UniProt Q9BZL6); experiment: PKD2 TR-FRET (LANCE) kinase assay; type: biochemical; conditions: full length wild-type enzyme, 20 μM ATP, syntide-2 substrate; read-out: Inhibitory Activity PKD2
T2 construct: This assay is performed with full length wild-type enzyme purchase from Invitrogen; purchased Invitrogen
T2 sequence (Q9BZL6 1-878): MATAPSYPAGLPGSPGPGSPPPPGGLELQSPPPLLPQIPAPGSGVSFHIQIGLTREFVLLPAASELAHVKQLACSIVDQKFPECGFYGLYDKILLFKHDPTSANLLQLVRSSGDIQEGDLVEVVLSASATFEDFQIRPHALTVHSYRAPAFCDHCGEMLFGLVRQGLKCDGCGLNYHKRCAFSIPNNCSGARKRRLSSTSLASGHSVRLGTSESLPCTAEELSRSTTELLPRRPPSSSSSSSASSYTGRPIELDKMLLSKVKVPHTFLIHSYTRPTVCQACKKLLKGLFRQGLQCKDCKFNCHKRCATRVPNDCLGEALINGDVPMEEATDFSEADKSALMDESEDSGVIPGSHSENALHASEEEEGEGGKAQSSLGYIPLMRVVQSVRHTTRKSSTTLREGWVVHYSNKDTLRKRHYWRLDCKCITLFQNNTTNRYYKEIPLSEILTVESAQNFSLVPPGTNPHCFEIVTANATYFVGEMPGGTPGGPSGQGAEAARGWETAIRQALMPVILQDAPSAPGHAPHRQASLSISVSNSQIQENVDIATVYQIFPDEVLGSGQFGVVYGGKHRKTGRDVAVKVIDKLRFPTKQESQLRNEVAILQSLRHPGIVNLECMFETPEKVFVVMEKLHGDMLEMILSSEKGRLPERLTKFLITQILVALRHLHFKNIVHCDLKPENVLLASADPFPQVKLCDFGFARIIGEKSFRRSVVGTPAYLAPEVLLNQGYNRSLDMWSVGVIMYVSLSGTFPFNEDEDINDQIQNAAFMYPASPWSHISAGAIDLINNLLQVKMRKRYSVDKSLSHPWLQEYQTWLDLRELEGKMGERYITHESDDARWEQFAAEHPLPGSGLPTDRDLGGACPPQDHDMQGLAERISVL
Excerpt: as §1, with “D2 (PKD2)” for “D3 (PKD3)”
as §2, with “wild-type enzyme purchase from Invitrogen.” for “wild-type enzyme that is purchased from Invitrogen.”, “0.2 μg/mL PKD2 enzyme. The” for “0.2 μg/mL PKD3 enzyme. The”, “a stop/detection Buffer consisting of” for “a stop/detection buffer consisting of”

Row | Compound | IC50 (protein kinase D3 (PKD3)) [nM] | IC50 (protein kinase D2 (PKD2)) [nM]
1 | c1cc(-c2cc(-c3nnco3)cc(N3CCNCC3)n2)cc(NC2CCCCC2)n1 [Cyclohexyl-(4-[1,3,4]oxadiazol-2-yl-6-piperazin-1-yl-[2,4′]bipyridinyl-2′-yl)-amine] | 14 | 214
2 | Nc1cc(-c2ccnc(NC3CCCCC3)c2)nc(N2CCNCC2)c1 [N*2′*-Cyclohexyl-6-piperazin-1-yl-[2,4′]bipyridinyl-4,2′-diamine] | 38 | 361
3 | FC(F)(F)c1cc(-c2ccnc(NC3CCCCC3)c2)nc(N2CCNCC2)c1 [Cyclohexyl-(6-piperazin-1-yl-4-trifluoromethyl-[2,4′]bipyridinyl-2′-yl)amine] | 13 | 101
4 | O=C1NCc2c1cc(-c1ccnc(NC3CCCCC3)c1)nc2N1CCn2cnnc2C1 [6-(2-Cyclohexylamino-pyridin-4yl)-4-(5,6-dihydro-8H-[1,2,4]triazolo[4,3-a]pyrazin-7-yl)-2,3-dihydro-pyrrolo[3,4-c]pyridin-1-one] | 74 | 466
5 | O=[N+]([O-])c1cc(-c2ccnc(NC3CCCCC3)c2)nc(N2CCNCC2)c1 [Cyclohexyl-(4-nitro-6-piperazin-1-yl-[2,4′]bipyridinyl-2′-yl)-amine] | 5 | 62
6 | CS(=O)(=O)c1cc(-c2ccnc(NC3CCCCC3)c2)nc(N2CCNCC2)c1 [Cyclohexyl-(4-methanesulfonyl-6-piperazin-1-yl-[2,4′]bipyridinyl-2′-yl)-amine] | 85 | 735
7 | NC(=O)c1cc(-c2ccnc(NCc3ccccc3Cl)c2)nc(N2CCNCC2)c1 [2′-(2-Chlorobenzylamino-6-piperazin-1-yl-[2,4′]bipyridinyl-4-carboxylic acid amide] | 31 | 368
8 | COC(=O)c1ccc(-c2ccnc(NC3CCCCC3)c2)nc1N1CCNCC1 [2′-Cyclohexylamino-6-piperazin-1-yl-[2,4′]bipyridinyl-5-carboxylic acid methyl ester] | 166 | 500
9 | NC(=O)c1cc(-c2ccnc(NCCc3ccc(O)cc3)c2)nc(N2CCNCC2)c1 [2′-[2-(4-Hydroxyphenyl)ethylamino]-6-piperazin-1-yl-[2,4′]bipyridinyl-4-carboxylic acid amide] | 2 | 402
10 | NC(=O)c1cc(-c2ccnc(NC3CCCCC3)c2)nc(N2CCN3CCC[C@@H]3C2)c1 [2′-Cyclohexylamino-6-(R)-hexahydro-pyrrolo[1,2-a]pyrazin-2-yl-[2,4′]bipyridinyl-4-carboxylic acid amide] | 20 | 297
11 | N#CCNC(=O)c1ccc(-c2ccnc(NC3CCCCC3)c2)nc1N1CCNCC1 [2′-Cyclohexylamino-6-piperazin-1-yl-[2,4′]bipyridinyl-5-carbonxylic acid cyanomethyl-amide] | 114 | 281
12 | Fc1ccc(Nc2cc(-c3ccnc(NC4CCCCC4)c3)nc(N3CCNCC3)c2)cc1 [N*2′*-Cyclohexyl-N*4*-(4-fluoro-phenyl)-6-piperazin-1-yl-[2,4′]bipyridinyl-4,2′-diamine] | 252 | 1160
